From ChEMBL document CHEMBL1201862, “PubChem BioAssay data set” (2004)
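Step 1: Grow cells in 96-well plates. Step 2: Expose to compound for 48 hours at 5 concentrations. Step 3: Interpolate endpoints linearly; if unreached, use highest concentration. Abbreviation: GI50, concentration required for 50% inhibition of growth.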 Calls of active or inactive are those of the source. Cut-off read from the data, not from the text of the source: active = GI50 up to about 1.1 µM and inactive = higher.

Legend:
Test in all cases: NCI tumour cell line growth inhibition, 48 h
HOP-92 = system: HOP-92
RXF 393 = system: RXF 393
NCI-H522 = system: NCI-H522
NCI/ADR-RES = system: NCI/ADR-RES
OVCAR-5 = system: OVCAR-5
NCI-H226 = system: NCI-H226
HL-60 = system: HL-60
HOP-62 = system: HOP-62
SW-620 = system: SW-620
MDA-MB-435 = system: MDA-MB-435
NCI-H23 = system: NCI-H23
SK-OV-3 = system: SK-OV-3
SF-539 = system: SF-539
SF-295 = system: SF-295
LOX IMVI = system: LOX IMVI
RPMI-8226 = system: RPMI-8226
CAKI-1 = system: CAKI-1
SK-MEL-5 = system: SK-MEL-5
NCI-H460 = system: NCI-H460
HCT-116 = system: HCT-116

SMILES	GI50 (HOP-92)	GI50 (RXF 393)	GI50 (NCI-H522)	GI50 (NCI/ADR-RES)	GI50 (OVCAR-5)	GI50 (NCI-H226)	GI50 (HL-60)	GI50 (HOP-62)	GI50 (SW-620)	GI50 (MDA-MB-435)	GI50 (NCI-H23)	GI50 (SK-OV-3)	GI50 (SF-539)	GI50 (SF-295)	GI50 (LOX IMVI)	GI50 (RPMI-8226)	GI50 (CAKI-1)	GI50 (SK-MEL-5)	GI50 (NCI-H460)	GI50 (HCT-116)
O=C1CCC2(CC1CCSc1ccccc1)OCCO2 (stereo not given)	> 100 µM (inactive)	> 100 µM (inactive)	> 100 µM (inactive)	> 100 µM (inactive)	> 100 µM (inactive)	> 100 µM (inactive)	95.1 µM (inactive)	> 100 µM (inactive)	> 100 µM (inactive)	> 100 µM (inactive)	> 100 µM (inactive)	> 100 µM (inactive)	> 100 µM (inactive)	> 100 µM (inactive)	98.9 µM (inactive)	> 100 µM (inactive)	> 100 µM (inactive)	88.5 µM (inactive)	> 100 µM (inactive)	–
Cc1ccc(C2=CC(=O)/C(=C\C(=O)c3ccc(Br)cc3)O2)c(C)c1	6.4 µM (inactive)	4.58 µM (inactive)	1.69 µM (inactive)	7.91 µM (inactive)	23.7 µM (inactive)	10.9 µM (inactive)	3.92 µM (inactive)	42.4 µM (inactive)	–	13.6 µM (inactive)	26.6 µM (inactive)	7.74 µM (inactive)	31.4 µM (inactive)	26 µM (inactive)	3.78 µM (inactive)	2.87 µM (inactive)	3.04 µM (inactive)	14.5 µM (inactive)	26.5 µM (inactive)	7.64 µM (inactive)
NCCCN(CCCCN(CCCN)Cc1ccccc1)Cc1ccccc1	> 10 µM (inactive)	85.3 µM (inactive)	10.9 µM (inactive)	> 100 µM (inactive)	17.5 µM (inactive)	21.2 µM (inactive)	> 100 µM (inactive)	–	> 100 µM (inactive)	56.1 µM (inactive)	42.2 µM (inactive)	62.5 µM (inactive)	27.6 µM (inactive)	69 µM (inactive)	19.3 µM (inactive)	> 100 µM (inactive)	15.8 µM (inactive)	57.8 µM (inactive)	15.3 µM (inactive)	30.8 µM (inactive)
C/C(=N\NC(=S)N(C)C)c1ccccn1	0.498 µM (active)	0.41 µM (active)	0.247 µM (active)	< 0.01 µM (active)	0.0373 µM (active)	0.148 µM (active)	< 0.01 µM (active)	0.033 µM (active)	0.0109 µM (active)	0.221 µM (active)	< 0.01 µM (active)	< 0.0264 µM (active)	0.231 µM (active)	< 0.01 µM (active)	< 0.01 µM (active)	< 0.0379 µM (active)	0.186 µM (active)	0.178 µM (active)	< 0.0156 µM (active)	< 0.01 µM (active)
Nc1ccc(-c2nc3cc(F)ccc3s2)cc1Cl	25.5 µM (inactive)	24 µM (inactive)	20.5 µM (inactive)	48.9 µM (inactive)	0.0219 µM (active)	0.109 µM (active)	3.64 µM (inactive)	8.36 µM (inactive)	> 100 µM (inactive)	> 100 µM (inactive)	–	19.1 µM (inactive)	20.2 µM (inactive)	23.5 µM (inactive)	> 77.4 µM (inactive)	> 55.1 µM (inactive)	8.67 µM (inactive)	25.5 µM (inactive)	0.0364 µM (active)	0.0782 µM (active)
CSc1ccccc1P(CCP(c1ccccc1SC)c1ccccc1SC)c1ccccc1SC	61.1 µM (inactive)	30.8 µM (inactive)	28.1 µM (inactive)	> 93.1 µM (inactive)	43.9 µM (inactive)	10.4 µM (inactive)	0.4 µM (active)	8.61 µM (inactive)	16.7 µM (inactive)	31.5 µM (inactive)	1 µM (active)	16.3 µM (inactive)	34.1 µM (inactive)	7.08 µM (inactive)	22.6 µM (inactive)	4.47 µM (inactive)	> 84.5 µM (inactive)	55.5 µM (inactive)	3.13 µM (inactive)	0.413 µM (active)
O=c1c(O)c(-c2cc(O)c(O)c(O)c2)oc2cc(O)cc(O)c12 [MYRICETIN]	46.7 µM (inactive)	20.8 µM (inactive)	68.1 µM (inactive)	22.4 µM (inactive)	84.1 µM (inactive)	25.6 µM (inactive)	56.6 µM (inactive)	20.3 µM (inactive)	19.5 µM (inactive)	17.7 µM (inactive)	18.4 µM (inactive)	> 100 µM (inactive)	> 100 µM (inactive)	20.3 µM (inactive)	13.6 µM (inactive)	36.1 µM (inactive)	23.6 µM (inactive)	31.5 µM (inactive)	20.4 µM (inactive)	–
